Test system: skin
Assay: Test Example 1: transepidermal water loss (TEWL) of skin pretreated with sodium lauryl sulfate, Tewameter
Type: in vivo
Details: conclusion drawn from Table 3
Experimental: Vesicle dispersion liquid 1, Vesicle dispersion liquid 2, Comparative Example 4, Comparative Example 5, and Comparative Example 6 were each used as a sample. The skin was previously applied and blocked with 1% sodium lauryl sulfate aqueous solution for 24 hours to enhance transepidermal water loss (TEWL), and was applied and blocked with the sample for 6 hours, and 30 minutes after removing a bandage, TEWL was determined using Tewameter (manufactured by Integral Corporation). It should be noted that water was applied as a control. […] This is inferably because the dermis-reaching property of Palmaria extract 1, which is an active ingredient, has been enhanced owing to the vesicle.

`CCCCCCCCCCCC(=O)N[C@@H](CCC(=O)NCCCC[C@H](NC(=O)CC[C@H](NC(=O)CCCCCCCCCCC)C(=O)O)C(=O)O)C(=O)O` [Pellicer L-30, α,ε-bis (γ-N-lauroylglutamyl)lysine] was tested, and the “TEWL-suppressing effect (in words)” value was “had a function of suppressing TEWL”.
